# According to patent US4115385A, “Antibacterial 3-(5-tetrazolyl) penam compounds” (Pfizer Inc., priority 1977, dated 1978):
# Test system: Streptococcus pyogenes
# Experiment: In vitro minimum inhibitory concentration (MIC) vs. Strep. pyogenes
# Assay type: cell-based
# Details: Streptococcus pyogenes, read-out: MIC vs. Strep. pyogenes
# Method in brief: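 Broth inoculated with bacteria and test antibiotic, incubated overnight and read visually; MIC is the lowest concentration preventing turbidity. Test preparations also contain some of the corresponding tetrazole tautomer.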
row,Molecule,MIC [µg/mL]
1,CC1(C)S[C@@H]2[C@H](NC(=O)[C@H](NC(=O)Cc3ccccc3)c3ccccc3)C(=O)N2[C@H]1c1nnn[nH]1 [D-2-(2-phenylacetamido)-2-phenylacetyl],< 0.1
2,"CC1(C)S[C@@H]2[C@H](NC(=O)Cc3sccc3CN)C(=O)N2[C@H]1c1nnn[nH]1 [2-(3-aminomethyl-2-thienyl)-acetyl, 6-(2-[3-Aminomethyl-2-thienyl]acetamido)-2,2-dimethyl-3-(5-tetrazolyl)penam]",≤ 0.1
3,Cc1cc(C(=O)NC(=O)N[C@@H](C(=O)N[C@@H]2C(=O)N3[C@@H]2SC(C)(C)[C@@H]3c2nn[nH]n2)c2ccccc2)on1,< 0.1
4,"CCNC(=O)NCC(=O)N[C@@H](C(=O)N[C@@H]1C(=O)N2[C@@H]1SC(C)(C)[C@@H]2c1nnn[nH]1)c1ccccc1 [6-(D-2-[2-(3-Ethylureiod)acetamido]-2-phenylacetamido)-2,2-dimethyl-3-(5-tetrazolyl)penam]",< 0.1
5,"CCNC(=O)N[C@@H]1C(=O)N2[C@@H]1SC(C)(C)[C@@H]2c1nnn[nH]1 [3-ethylcarbamoyl, 6-(3-ethylureido)-2,2-dimethyl-3-(5-tetrazolyl)penam]",< 0.1
6,"CC1(C)S[C@@H]2[C@H](NC(=O)Nc3ccccc3)C(=O)N2[C@H]1c1nnn[nH]1 [3-phenylcarbamoyl, 6-(3-Phenylureido)-2,2-dimethyl-3-(5-tetrazolyl)penam]",< 0.1
7,CC1(C)S[C@@H]2[C@H](NC(=O)[C@H](NC(=O)CSc3ccccc3)c3ccccc3)C(=O)N2[C@H]1c1nnn[nH]1,< 0.1
8,"CC1(C)S[C@@H]2[C@H](NC(=O)C(=O)Cc3ccccc3)C(=O)N2[C@H]1c1nnn[nH]1 [phenylpyruvoyl, 6-Phenylpyruvamido-2,2-dimethyl-3-(5-tetrazolyl)penam]",< 0.1
9,COc1ccc(NC(=O)N[C@@H](C(=O)N[C@@H]2C(=O)N3[C@@H]2SC(C)(C)[C@@H]3c2nnn[nH]2)c2ccccc2)cc1,< 0.1
10,CCOC(=O)C(=O)N[C@@H](C(=O)N[C@@H]1C(=O)N2[C@@H]1SC(C)(C)[C@@H]2c1nnn[nH]1)c1ccccc1,< 0.1
11,CC1(C)S[C@@H]2[C@H](NC(=O)[C@H](NC(=O)CNC(=O)NC(=O)c3ccccc3)c3ccccc3)C(=O)N2[C@H]1c1nnn[nH]1,< 0.1
12,CC1(C)S[C@@H]2[C@H](NC(=O)[C@H](NC(=O)c3cccnc3)c3ccccc3)C(=O)N2[C@H]1c1nnn[nH]1,< 0.1
13,"CCCS(=O)(=O)N[C@@H](C(=O)N[C@@H]1C(=O)N2[C@@H]1SC(C)(C)[C@@H]2c1nn[nH]n1)c1ccc(O)cc1 [6-(D-2-[Propanesulfonamido]-2-[p-hydroxyphenyl]acetamido-)-2,2-dimethyl-3-(5-tetrazolyl)penam]",0.1
14,CC1(C)S[C@@H]2[C@H](NC(=O)[C@H](NC(=O)CNC(=N)c3nc4ccccc4s3)c3ccccc3)C(=O)N2[C@H]1c1nnn[nH]1,< 0.1
15,"CC1(C)S[C@@H]2[C@H](NC(=O)[C@H](NC(=O)NC(=N)N)c3ccccc3)C(=O)N2[C@H]1c1nnn[nH]1 [D-2-(3-guanylureido)-2-phenylacetyl, 6-(D-2-[3-Guanylureido]-2-phenylacetamido)-2,2-dimethyl-3-(5-tetrazolyl)penam]",< 0.1
16,CC(=O)NCC(=O)N[C@@H](C(=O)N[C@@H]1C(=O)N2[C@@H]1SC(C)(C)[C@@H]2c1nn[nH]n1)c1ccccc1,< 0.1
17,CC1(C)S[C@@H]2[C@H](NC(=O)[C@H](NC(=O)NC(=O)C3CC3)c3ccccc3)C(=O)N2[C@H]1c1nn[nH]n1,< 0.1
18,CC1(C)S[C@@H]2[C@H](NC(=O)C(N)c3cccnc3)C(=O)N2[C@H]1c1nnn[nH]1 (mixture of isomers) [DL-2-amino-2-(3-pyridyl)acetyl],< 0.1
19,CC1(C)S[C@@H]2[C@H](NC(=O)[C@H](NC(=O)Cc3cccs3)c3ccccc3)C(=O)N2[C@H]1c1nnn[nH]1,0.1
20,CC1(C)S[C@@H]2[C@H](NC(=O)[C@H](NC(=O)CNC(=N)c3cccc(C(N)=O)c3)c3ccccc3)C(=O)N2[C@H]1c1nnn[nH]1,< 0.1
21,CC1(C)S[C@@H]2[C@H](NC(=O)[C@H](NC(=O)CNC(=N)c3cc[n+]([O-])cc3)c3ccccc3)C(=O)N2[C@H]1c1nnn[nH]1,< 0.1
22,CCC(=O)NC(=O)N[C@@H](C(=O)N[C@@H]1C(=O)N2[C@@H]1SC(C)(C)[C@@H]2c1nn[nH]n1)c1ccccc1 [2-(3-propionylureido)-2-phenylacetyl],< 0.1
23,"CC1(C)S[C@@H]2[C@H](NC(=O)[C@H](N)C3=CCC=CC3)C(=O)N2[C@H]1c1nnn[nH]1 [D-2-amino-2-(1,4-cyclohexadienyl)acetyl, 6-(D-2-Amino-2-[1,4-cyclohexadienyl]acetamido)-2,2-dimethyl-3-(5-tetrazolyl)penam]",< 0.1
24,"CC1(C)S[C@@H]2[C@H](NC(=O)[C@H](NC(=O)C(=Cc3cccs3)C(=O)O)c3ccccc3)C(=O)N2[C@H]1c1nnn[nH]1 [6-(D-2-[2-carboxy-3-(2-thienyl)acrylamido]-2-phenylacetamido)-2,2-dimethyl-3-(5-tetrazolyl)penam]",< 0.1
25,CC1(C)S[C@@H]2[C@H](NC(=O)[C@H](NC(=O)Nc3ccc(Cl)cc3)c3ccccc3)C(=O)N2[C@H]1c1nnn[nH]1,< 0.1
26,CCCC(=O)NCC(=O)N[C@@H](C(=O)N[C@@H]1C(=O)N2[C@@H]1SC(C)(C)[C@@H]2c1nnn[nH]1)c1ccccc1,< 0.1
27,"CC1(C)S[C@@H]2[C@H](NC(=O)Cc3ccc(OCCN=[N+]=[N-])cc3)C(=O)N2[C@H]1c1nn[nH]n1 [2-(4-[2-azidoethoxy]phenyl)acetyl, 6-(2-[4-(2-Azidoethoxy)phenyl]acetamido)-2,2-dimethyl-3-(5-tetrazolyl)penam]",< 0.1
28,CC1(C)S[C@@H]2[C@H](NC(=O)[C@H](NC(=O)CSc3nc4ccccc4[nH]3)c3ccccc3)C(=O)N2[C@H]1c1nn[nH]n1,< 0.1
29,"CC1(C)S[C@@H]2[C@H](NC(=O)[C@H](NC(=O)CCl)c3ccccc3)C(=O)N2[C@H]1c1nn[nH]n1 [D-2-(2-chloroacetamido)-2-phenylacetyl, 6-(D-2-[2-Chloroacetamido]-2-phenylacetamido)-2,2-dimethyl-3-(5-tetrazolyl)penam]",< 0.1
30,"CC1(C)S[C@@H]2[C@H](NC(=O)[C@H](NC(=O)CNC(=O)c3ccccc3)c3ccccc3)C(=O)N2[C@H]1c1nn[nH]n1 [6-(2-D-[2-Benzamidoacetamido]-2-phenylacetamido)-2,2-dimethyl-3-(5-tetrazolyl)penam]",< 0.1

# Same assay, conditions: Streptococcus pyogenes; Examples; read-out: MIC against Strep. pyogenes
row,MIC [µg/mL],Molecule
1,0.39,"CC(C)(C)C(=O)OCn1nnc([C@@H]2N3C(=O)[C@@H](NC(=O)[C@H](N)c4ccc(O)cc4)[C@H]3SC2(C)C)n1 [6-(D-2-Amino-2-[p-hydroxyphenyl]acetamido)-2,2-dimethyl-3-(2-[pivaloyloxymethyl]tetrazol-5-yl)penam]"

# Same assay, conditions: Streptococcus pyogenes; Table II; two-fold serial dilution, Brain-Heart Infusion broth, overnight; read-out: MIC vs. Strep. pyogenes
row,MIC [µg/mL],Molecule
1,0.2,CC1(C)S[C@@H]2[C@H](NC(=O)CSCc3ccccc3)C(=O)N2[C@H]1c1nnn[nH]1 [2-(benzylthio)acetyl]
2,< 0.1,CC1(C)S[C@@H]2[C@H](NC(=O)[C@@H](N)c3ccc(O)cc3)C(=O)N2[C@H]1c1nnn[nH]1 [L-2-amino-2-(p-hydroxyphenyl)acetyl]
3,0.2,CC1(C)S[C@@H]2[C@H](NC(=O)[C@H](NC(=O)NC(=O)CCl)c3ccccc3)C(=O)N2[C@H]1c1nn[nH]n1 [2-(3-[chloroacetyl]ureido-2-phenylacetyl]
4,1.56,COc1ccc(C(=N)NC(=O)NCC(=O)N[C@@H](C(=O)N[C@@H]2C(=O)N3[C@@H]2SC(C)(C)[C@@H]3c2nnn[nH]2)c2ccccc2)cc1
5,0.78,CC1(C)S[C@@H]2[C@H](NC(=O)[C@H](NC(=O)CCNC(=N)c3ccc(Cl)c(Cl)c3)c3ccccc3)C(=O)N2[C@H]1c1nnn[nH]1
6,0.2,CC1(C)S[C@@H]2[C@H](NC(=O)[C@H](NC(=O)CNC(=O)NC(=N)NCC3CCCCC3)c3ccccc3)C(=O)N2[C@H]1c1nn[nH]n1
7,0.2,"CC1(C)S[C@@H]2[C@H](NC(=O)[C@H](NC(=O)C3OC3C(=O)O)c3ccccc3)C(=O)N2[C@H]1c1nnn[nH]1 (stereo partly drawn) [6-(D-2-[4-Carboxy-2,3-propionamido]-2-phenylacetamido)-2,2-dimethyl-3-(5-tetrazol-5-yl)penam]"
8,0.39,CC1(C)S[C@@H]2[C@H](NC(=O)[C@H](N)c3ccco3)C(=O)N2[C@H]1c1nnn[nH]1 [D-2-amino-2-(2-furyl)acetyl]
9,0.39,CC1(C)S[C@@H]2[C@H](NC(=O)[C@H](NC(=O)CNC(=N)c3nc4ccccc4o3)c3ccccc3)C(=O)N2[C@H]1c1nnn[nH]1
10,0.2,COc1ccc(S(=O)(=O)N[C@@H](C(=O)N[C@@H]2C(=O)N3[C@@H]2SC(C)(C)[C@@H]3c2nn[nH]n2)c2ccccc2)cc1
11,1.56,CC1(C)S[C@@H]2[C@H](NC(=O)[C@H](NC(=O)CCNC(=N)Cc3ccc(Cl)cc3)c3ccccc3)C(=O)N2[C@H]1c1nnn[nH]1
12,50,CNC(=O)N[C@@H](C(=O)N[C@@H]1C(=O)N2[C@@H]1SC(C)(C)[C@@H]2c1nnn[nH]1)c1ccccc1 [D-2-(3-methylureido)-2-phenylacetyl]
13,25,CC1(C)S[C@@H]2[C@H](NC(=O)[C@H](NC(=O)C(=O)Oc3ccccc3)c3ccccc3)C(=O)N2[C@H]1c1nnn[nH]1
14,0.004,"CN=C(NC)SCC(=O)N[C@@H](C(=O)N[C@@H]1C(=O)N2[C@@H]1SC(C)(C)[C@@H]2c1nn[nH]n1)c1ccccc1 [6-(D-2-[N,N'-dimethylamidinothio)acetamido]-2-phenylacetamido)-2,2-dimethyl-3-(5-tetrazolyl)penam]"
15,0.004,CC1(C)S[C@@H]2[C@H](NC(=O)[C@H](NC(=O)CSC(=N)N)c3ccccc3)C(=O)N2[C@H]1c1nn[nH]n1

row,Molecule,MIC [µg/mL]
1,"Cc1onc(-c2ccccc2Cl)c1C(=O)N[C@@H]1C(=O)N2[C@@H]1SC(C)(C)[C@@H]2c1nnn[nH]1 [6-(3-[2-Chlorophenyl]-5-methyl-4-isoxazolecarboxamido)-2,2-dimethyl-3-(5-tetrazolyl)penam]",< 0.1

# Same assay, conditions: Streptococcus pyogenes; Table IV; read-out: MIC vs. Strep. pyogenes
row,MIC [µg/mL],Molecule
1,0.39,"CC(C)(C)C(=O)OCn1nnc([C@@H]2N3C(=O)[C@@H](NC(=O)[C@H](N)c4ccc(O)cc4)[C@H]3SC2(C)C)n1 [6-(D-2-Amino-2-[p-hydroxyphenyl]acetamido)-2,2-dimethyl-3-(2-[pivaloyloxymethyl]tetrazol-5-yl)penam]"

# Same assay, conditions: Table IV
row,Molecule,MIC vs. Strep. pyogenes [µg/mL]
1,"6-(2-[2-Aminomethylphenyl]acetamido)-2,2-dimethyl-3-(1-[2]-pivaloyloxymethyltetrazol-5-yl)penam",< 0.1
